Consider 100 compounds from PubChem BioAssay AID1648 (Sanford-Burnham Center for Chemical Genomics, 2009).

Active and inactive are the calls of the source. No rule for the calls is given here.

For this experiment, the target named is Serine/threonine-protein kinase mTOR (Homo sapiens) (UniProt P42345). Briefly: mTOR FRB domain ligand binding – biophysical, NMR (AID 1648). As to conditions: NMR binding to FRB domain, chemical shift.
Chain of Serine/threonine-protein kinase mTOR (Homo sapiens) (P42345 2015-2114): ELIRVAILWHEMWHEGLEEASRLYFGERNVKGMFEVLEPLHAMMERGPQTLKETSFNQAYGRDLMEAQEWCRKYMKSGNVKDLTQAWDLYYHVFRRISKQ
Turning to `CC(C)CCCC(C)[C@H]1CCC2C3CC[C@H]4CC(=O)CC[C@]4(C)C3CC[C@@]21C` (stereo not given in full), the Kd was > 4 mM (inactive). For `CC(=O)c1c(C)n([O-])c2ccccc2[n+]1=O` the value was > 4 mM (inactive); for `COc1ccc2c(c1OC)C(=O)OC2[C@H]1c2c(cc3c(c2OC)OCO3)CCN1C` (stereo not given in full), > 4 mM (inactive); for `COc1ccc2c(c1)OC/C(=C/c1ccc(OC)c(OC)c1)C2=O`, > 4 mM (inactive). For `S=c1[nH]nc(-c2cccnc2)n1Cc1ccccc1` the value was > 4 mM (inactive); for `CCOC(=O)c1[nH]cnc1C(=O)OC(C)C`, > 4 mM (inactive). As to `N#CCSc1nc(-c2ccccc2)cs1`, the Kd was > 4 mM (inactive). The result for `O=C(Nc1ccccc1)Nc1ccccn1` reads > 4 mM (inactive); that for `Nc1cccc2cccnc12`, > 4 mM (inactive); that for `COc1cccc(-c2nc(-c3ccccn3)no2)c1OC`, > 4 mM (inactive).

As to `c1ccc(-c2csc3ncn4nnnc4c23)cc1`, the Kd was > 4 mM (inactive). The result for `CC(=O)Nc1ccc2c(c1)n(C)c(=O)n2C` reads > 4 mM (inactive); that for `C/C=C1\[C@H]2C=C(C)C[C@]1(N)c1ccc(=O)[nH]c1C2`, > 4 mM (inactive). For `NCc1csc2ccccc12` the value was > 4 mM (inactive); for `C=C1C(N)CC2CC1C2(C)C` (stereo not given), > 4 mM (inactive); for `CC1=CC(C)C(C(=O)O)C(C(=O)N2CCN(C)CC2)C1` (stereo not given), > 4 mM (inactive). For `O=C(CN1C(=O)CCC1=O)c1ccccc1` the value was > 4 mM (inactive); for `O=C(Nc1ncccn1)c1cccc(F)c1`, > 4 mM (inactive); for `CC(C)=CCC1=C(O)c2ccccc2C(=O)C1=O`, > 4 mM (inactive). Turning to `Cc1cc(=O)cc(C)n1-c1ccccc1N1CCOCC1`, the Kd was > 4 mM (inactive).

For the compound `O=c1c(O)cc([C@H]2Oc3cc(O)cc(O)c3C[C@H]2O)cc2c([C@H]3Oc4cc(O)cc(O)c4C[C@H]3O)cc(O)c(O)c12`, the Kd was > 4 mM (inactive).

Regarding `NC(=O)C(=O)NCc1ccc(Cl)cc1`, the Kd was > 4 mM (inactive). For `O=C(c1ccccc1)c1cncc(Br)c1` the value was > 4 mM (inactive); for `O=C1C(=O)N(CNc2ncccn2)c2ccccc21`, > 4 mM (inactive). The result for `CCOC(=O)Nc1ccc2c(C)cc(=O)oc2c1` reads > 4 mM (inactive). The result for `c1cc(C(N2CCOCC2)N2CCOCC2)ccn1` reads > 4 mM (inactive); that for `Cc1ccc2cc(C(=O)O)ccc2n1`, > 4 mM (inactive). On to `COc1cc2c(cc1OC)[C@@]13CCN4CC5=CCOC6CC(=O)N2C1[C@H]6[C@H]5C[C@H]43` (stereo not given in full), for which the Kd was > 4 mM (inactive). For `CCOC(=O)C1C(C=C(C)C)C1(C)C` (stereo not given) the value was > 4 mM (inactive); for `Cc1nnc(Nc2cccnc2)[nH]c1=O`, > 4 mM (inactive). For `O=C1NC(=Nc2ccccc2Cl)SC1(CO)CO` the value was > 4 mM (inactive). The result for `NCCc1nc2ccccc2[nH]1` reads > 4 mM (inactive); that for `CC(=O)O[C@@H]1CC2C(C)(C)CCC(=O)[C@]2(C)C2CC[C@@]3(C)[C@H](c4ccoc4)OC(=O)C4OC43[C@@]21C` (stereo not given in full), > 4 mM (inactive); that for `O=c1[nH]c(=O)c2[nH]cnc2[nH]1`, > 4 mM (inactive). For `NCc1ccc2c(c1)OCCCO2`, the Kd is > 4 mM (inactive). The result for `Nc1cccc2nsnc12` reads > 4 mM (inactive); that for `O=C(CC1Nc2ccccc2NC1=O)Nc1ccc(O)cc1` (stereo not given), > 4 mM (inactive); that for `CSc1ccc(S(=O)(=O)N2CCCC2)cc1`, > 4 mM (inactive). For `COc1ccc2[nH]cc(CCNC(C)=O)c2c1` the value was > 4 mM (inactive). For `COc1ccc2c(c1)O[C@@H]1COc3cc(OC)c(OC)cc3[C@@H]1C2=O` the value was > 4 mM (inactive). As to `O=C1CC(=O)N(c2cccc(Cl)c2)N1`, the Kd was > 4 mM (inactive). In the case of `CC(C)(C#N)O[C@@H]1O[C@H](CO)[C@@H](O)[C@H](O)[C@H]1O`, the Kd was > 4 mM (inactive). As to `Cc1ccc(S(=O)(=O)CC(=O)N(C)C)cc1`, the Kd was > 4 mM (inactive). The result for `OCc1nccn1Cc1ccccc1` reads > 4 mM (inactive); that for `O=c1c2ccccc2nc(-c2ccco2)n1-c1nccs1`, > 4 mM (inactive); that for `NC(=O)C(=O)Nc1nc(-c2ccccc2)cs1`, > 4 mM (inactive). Take `CC(=O)NC(C)C12CC3CC(CC(C(=O)O)(C3)C1)C2` (stereo not given): the Kd is > 4 mM (inactive).

Regarding `Cc1cc(C(=O)N2CCN(c3ccccn3)CC2)no1`, the Kd was > 4 mM (inactive). The result for `Cc1cc(C(=O)NC(C)c2ccncc2)no1` (stereo not given) reads > 4 mM (inactive); that for `O=c1nc(N2CCCCC2)nc2n1CCO2`, > 4 mM (inactive); that for `Cc1ccc(NC(=O)C(=O)Nc2ccccn2)cc1`, > 4 mM (inactive). For `O=C1C(=O)N(CN2CCN(CCO)CC2)c2ccccc21` the value was > 4 mM (inactive); for `NC(=O)C1CCN(S(=O)(=O)c2ccccc2)CC1`, > 4 mM (inactive); for `Cc1cc(=O)n2[nH]cnc2n1`, > 4 mM (inactive). For the compound `C[C@]12CCC3C(CC[C@]4(O)C[C@@H](O)CC[C@]34C=O)[C@@]1(O)CCC2C1=CC(=O)OC1` (stereo not given in full), the Kd is > 4 mM (inactive). Consider `NC(=O)c1ccc(C(N)=O)c(-c2ccccc2)c1`, for which the Kd was > 4 mM (inactive). The result for `COc1ccc(C)cc1-n1c(-c2ccncc2)n[nH]c1=S` reads > 4 mM (inactive); that for `COCC(=O)NC1CC(C)(C)NC(C)(C)C1`, > 4 mM (inactive); that for `CN1CCn2c1nc(N1CCCCC1)nc2=O`, > 4 mM (inactive). For `COc1c2ccoc2cc2oc(C)cc(=O)c12` the value was > 4 mM (inactive); for `Cc1ccc(N2C(=O)CCC2=O)cc1`, > 4 mM (inactive); for `COc1ccc(-c2cc(=O)c3c(OC(C)=O)cc(OC(C)=O)cc3o2)cc1`, > 4 mM (inactive).

For the compound `CSc1nnc2[nH]c(=O)cc(N)n12`, the Kd was > 4 mM (inactive). For `O=C(O)[C@H](O)[C@@](O)(Cc1ccc(O)cc1)C(=O)O` the value was > 4 mM (inactive). The result for `C=C[C@H]1CN2CC[C@H]1C[C@@H]2[C@@H](O)c1ccnc2ccc(OC)cc12` reads > 4 mM (inactive). For `C/C=C(/C)C(=O)O[C@H]1CC[C@@]2(C)[C@@H]3CC[C@H]4[C@]5(O)C[C@H](O)[C@@]6(O)[C@@H](CN7C[C@@H](C)CC[C@H]7[C@@]6(C)O)[C@]5(O)C[C@@]42OC13O` the value was > 4 mM (inactive); for `Cc1ccc2cc(N)ccc2n1`, > 4 mM (inactive); for `CSc1ncc(CO)n1Cc1ccccc1`, > 4 mM (inactive). For the compound `COc1ccccc1-c1noc(-c2ccco2)n1`, the Kd is > 4 mM (inactive). The result for `CN1CCN(C(=S)NC(=O)c2ccn(C)n2)CC1` reads > 4 mM (inactive). For `Cc1cc(=O)cc(C)n1NC(N)=S`, the Kd was > 4 mM (inactive). The result for `O=C(Nc1ccc2c(c1)OCO2)c1cccs1` reads > 4 mM (inactive); that for `Cc1cc(C)n(S(=O)(=O)c2ccc(C(C)(C)C)cc2)n1`, > 4 mM (inactive); that for `NN1C(=O)/C(=C/c2ccc(O)c(O)c2)SC1=S`, > 4 mM (inactive). The result for `N#Cc1cnn(-c2ccc(Cl)cc2)c1N` reads > 4 mM (inactive). For `O=C(CNC(=O)c1ccc(F)cc1)NC1=NCCS1`, the Kd is > 4 mM (inactive). The result for `CN1CCC(N2CCN(C)CC2)CC1` reads > 4 mM (inactive); that for `COc1cnn(-c2ccccc2)c(=O)c1N(C)C`, > 4 mM (inactive).

As to `CC1Cc2nc(SCC(N)=O)n(C)c(=O)c2S1` (stereo not given), the Kd is > 4 mM (inactive). For `O=C(NCC1CCNCC1)c1ccncc1` the value was > 4 mM (inactive); for `Cc1sc2nc(SCC(=O)N(C)C)[nH]c(=O)c2c1C`, > 4 mM (inactive). For `C[C@]12CC(=O)C3C(CC[C@@H]4C[C@H](O)CC[C@]34C)C1CC[C@]2(O)C(=O)CO` (stereo not given in full) the value was > 4 mM (inactive). The result for `Cc1ccc2c(c1)=C(c1sc(N)nc1O)C(=O)N=2` reads > 4 mM (inactive). For the compound `Cc1n[nH]c(=S)n(/N=C/c2ccccc2)c1=O`, the Kd was > 4 mM (inactive).

As to `CC(=O)Nc1cc(O)cc(O)c1`, the Kd was > 4 mM (inactive).

Regarding `Cn1nnc2cc(CO)ccc21`, the Kd is > 4 mM (inactive).

Regarding `Cc1ccc(C)c(S(=O)(=O)NCc2cccnc2)c1`, the Kd is > 4 mM (inactive). For `Nc1ccccc1N=C1CNC(=O)C1` the value was > 4 mM (inactive); for `C[n+]1ccc(C(=O)[O-])cc1`, > 4 mM (inactive). The result for `Cn1cnc2c(Cl)ncnc21` reads > 4 mM (inactive); that for `COC(=O)c1cccs1`, > 4 mM (inactive); that for `CSc1nc2[nH]ncc2c(=O)[nH]1`, > 4 mM (inactive). The result for `Cc1cc2ncn(S(=O)(=O)N3CCOCC3)c2cc1C` reads > 4 mM (inactive); that for `CCOc1ccc(N2C(=O)CCC2=O)cc1`, > 4 mM (inactive); that for `Cc1cc(C)n(/N=C\c2cccs2)c(=O)c1C(N)=O`, > 4 mM (inactive). In the case of `Cc1cc(=O)n(CCc2ccccc2)c(O)c1C#N`, the Kd is > 4 mM (inactive). Consider `Cc1ccc(-c2c(C)n([O-])c(C)c(C)[n+]2=O)cc1`, for which the Kd was > 4 mM (inactive).

Take `COc1ccc(-c2nc(C)sc2CC(=O)O)cc1`: the Kd is > 4 mM (inactive). For `Nc1cccc2c(=O)[nH][nH]c(=O)c12` the value was > 4 mM (inactive). The result for `O=S(=O)(NCc1ccco1)c1cccc2cccnc12` reads > 4 mM (inactive).

As a reminder, the Kd is the equilibrium constant for the complex coming apart.
